From the NIST ThermoML archive (doi:10.1016/j.jct.2018.09.036)

Assay: mn = molality of the nth substance listed, in mol/kg
Settings: 298.15 K, 99.7 kPa, Liquid; for viscosity: Falling or rolling sphere viscometry; for mass density: Vibrating tube method

O [water] + NCC(=O)O
Settings	viscosity [mPa·s]
m2 = 0	0.89

O [water] + CCn1cc[n+](C)c1.[Br-]
Settings	viscosity [mPa·s]
m2 = 0	0.89

O [water] + CCCCn1cc[n+](C)c1.[Br-]
Settings	viscosity [mPa·s]
m2 = 0	0.89

CCn1cc[n+](C)c1.[Br-] [1-ethyl-3-methylimidazolium bromide] + O
Settings	mass density [kg/m3]	viscosity [mPa·s]
m1 = 0.15	1004.96	0.899
m1 = 0.3	1012.56	0.93
m1 = 0.45	1019.92	0.961
m1 = 0.6	1027.01	0.992
m1 = 0.7	1031.63	1.013
m1 = 0.8	1036.11	1.036

NCC(=O)O [2-aminoacetic acid] + O
Settings	mass density [kg/m3]	viscosity [mPa·s]
m1 = 0.1	1000.22	0.902
m1 = 0.15	1001.78	0.908
m1 = 0.2	1003.34	0.914
m1 = 0.25	1004.88	0.92
m1 = 0.3	1006.42	0.927
m1 = 0.35	1007.94	0.934

O [water] + CCCCCCn1cc[n+](C)c1.[Br-]
Settings	viscosity [mPa·s]
m2 = 0	0.89

CCCCn1cc[n+](C)c1.[Br-] [1-butyl-3-methylimidazolium bromide] + O
Settings	mass density [kg/m3]	viscosity [mPa·s]
m1 = 0.15	1004.39	0.922
m1 = 0.3	1011.43	0.974
m1 = 0.45	1018.2	1.028
m1 = 0.6	1024.73	1.084
m1 = 0.7	1028.96	1.121
m1 = 0.8	1033.08	1.164

CCCCCCn1cc[n+](C)c1.[Br-] [3-hexyl-1-methyl-1H-imidazolium bromide] + O
Settings	mass density [kg/m3]	viscosity [mPa·s]
m1 = 0.15	1003.87	0.947
m1 = 0.3	1010.37	1.018
m1 = 0.45	1016.58	1.093
m1 = 0.6	1022.49	1.169
m1 = 0.7	1026.26	1.221
m1 = 0.8	1029.91	1.273
